Measurements as given in article PMC7310436, “JP3, an antiangiogenic peptide, inhibits growth and metastasis of gastric cancer through TRIM25/SP1/MMP2 axis” (Journal of Experimental & Clinical Cancer Research : CR, 2020).
Where a SMILES comes first, the peptide text is derived from it. [ ]: non-standard residue; d: D form. pY = N[C@@H](Cc1ccc(OP(=O)(O)O)cc1)C(=O)O; pT = C[C@@H](OP(=O)(O)O)[C@H](N)C(=O)O

Tests used:
SP1 [1] = assay: Protein stability, CHX chase and Western blotting; type: cell-based, human; settings: BGC823 cells; 50 μM for 24 h, then CHX
Method: (§1) Western blotting analysis was carried out as previously described. The antibodies against MMP2, Tubulin, Ub, HA-tag, Flag-tag and Ki-67 were purchased from Cell Signal Technology (Danvers MA, USA); anti-CD31 and PCNA were provided by Epitomics (MA, USA); anti-GAPDH and Actin were purchased from Beyotime (Jiangsu, China); anti-TRIM25 and SP1 were provided by Proteintech (Wuhan, China); anti-His was purchased from MBL (Japan). All above antibodies were used at a dilution of 1:1000.

TRIM25 [2] = assay: Protein stability, CHX chase and Western blotting; type: cell-based, human; settings: BGC823 cells; 50 μM for 12 h, then CHX
Method: as §1

HUVECs [3] = assay: HUVECs tube formation assay, direct treatment of HUVECs; type: cell-based, human; settings: HUVECs treated at similar dose for 24 h
SP1 [4] = assay: Western blotting of xenograft tumor tissues; type: in vivo, BALB/c nude mice; settings: compared to the Ctrl-P-H treatment
Method: as §1

TRIM25 [5] = assay: Western blotting of xenograft tumor tissues; type: in vivo, BALB/c nude mice; settings: compared to the Ctrl-P-H treatment
Method: as §1

PCNA = assay: Western blotting of xenograft tumor tissues; type: in vivo, BALB/c nude mice; settings: nude mice bearing GC
Method: as §1

CD31 [6] = assay: Western blotting of xenograft tumor tissues; type: in vivo, BALB/c nude mice; settings: nude mice bearing GC
Method: as §1

MMP2 [7] = assay: Western blotting of xenograft tumor tissues; type: in vivo, BALB/c nude mice; settings: nude mice bearing GC
Method: as §1

[8] = system: CD31 (microvessel density (MVD)); assay: IHC of xenograft tumor sections; type: in vivo, BALB/c nude mice
Method: (§2) Fig. 1 MMP2-targeted polypeptide JP3 inhibits growth and metastasis of GC in vivo. a The screening flowchart of JWA candidate peptides in nude mice. b The name and amino acid sequence of six fragments. c The ratios of mouse xenograft tumor weight/mice weight from screening model by intratumor injection. d The inhibition rates of tumor growth from screening model by intraperitoneal injection. e The expression levels of MMP2, CD31 and PCNA protein were analyzed using Western blotting in tumor tissues from nude mice bearing GC. f-g Sections of tumors were stained with anti-Ki-67 and anti-CD31 antibodies by IHC (scale bars = 50 μm). h-i The luciferase signals in the mice were detected and photographed using an IVIS in vivo image system. j-k The representative HE staining sections of lung (scale bars = 2 mm). l-m Sections of lung were stained with anti-CD31 antibodies by IHC (scale bars = 50 μm). The data are presented as the means ± SEM, ns: no significance, *P < 0.05, **P < 0.01

Ki-67 = assay: IHC of xenograft tumor sections; type: in vivo, BALB/c nude mice
Method: as §2

SP1 [9] = assay: Western blotting in GC cells; type: cell-based; settings: SGC7901 and BGC823 (Non(p)-JP3: BGC823, 24 h)
Method: as §1

BGC823 cells [10] = assay: Colony formation assay; type: cell-based, human; settings: different concentrations of JP3
TRIM25 mRNA = assay: qRT-PCR; type: cell-based, human
Method: (§3) According to the manufacturer’s protocol, total RNAs were isolated using TRIzol (Invitrogen, CA, USA) and reversely transcribed into cDNAs using reverse transcription kit and the SYBR Green Master Mix kit (Takara, Otsu, Japan). The complementary DNA (cDNA) was amplified with the following primers: 5′-[…]-3′ (forward) and 5′-[…]-3′ (reverse) for TRIM25; 5′-[…]-3′ (forward) and 5′-[…]-3′ (reverse) for GAPDH; 5′-[…]’-3′ (forward) and 5′-[…]-3′ (reverse) for SP1. Quantitative RT-PCR was carried out an ABI Prism 7900 Sequence detection system (Applied Biosystems, Canada). Relative levels were normalized to that of GAPDH.

SP1 mRNA = assay: qRT-PCR; type: cell-based, human; settings: BGC823 and SGC7901 cells
Method: as §3

HUVECs [11] = assay: HUVECs tube formation assay with conditional medium of peptide-treated GC cells; type: cell-based, human; settings: 4 h on Matrigel
Method: After 6 hours of peptide treatment of GC cells, the medium was replaced and cultured in a 60 mm petri dish containing 1% serum for 24 h. On the next day, 2 mL of conditional medium was collected. For tube formation assay, a 96-well plate was coated with 50 μL of Matrigel™ (BD Biosciences) and kept at 37 °C for 2 h. Then, 1.2 × 10^4 HUVECs suspended in 100 μL of conditional medium were applied to each well of the precoated 96-well plate. After incubation at 37 °C for 4 h, tubular structures formed in the Matrigel were captured in five randomly selected fields per sample under a microscope.

BGC823 cells [12] = assay: Xenograft screening of MMP2-targeted peptides by intraperitoneal injection; type: in vivo, BALB/c nude mice
Method: (§4) For establishing xenograft mouse models, 5 × 10^6/200 μL of BGC823 cells were subcutaneously injected into flank of BALB/c nude mice. When the tumor volume (V = 0.5 × length × width^2) reached about 100 mm^3, the mice were randomly divided into different groups and received the indicated treatments. General situations and activities of each mouse were daily recorded. Tumor sizes were recorded by caliper every 3 days for calculating tumor volumes. Body weight of the experimental mouse was also recorded every 3 days. The endpoint of the experimental therapy was determined until enough growth (up to 2000 mm^3) of the xenograft tumor or intolerable side effects.
(§5) In the present study, the strategy to screen JWA protein based functional tumor inhibitory peptides included four steps, (1) all the candidate fragments were selected from non-transmembrane regions and contain amino acid can be phosphorylated in its sequence; (2) the intra-tumor injection in xenograft GC tumor in mouse model was used for first round screening for all candidate fragments; (3) the identified functional peptides in (2) were modified with HWGF as MMP2 target and used for secondary screening by intraperitoneal injection in xenograft GC mouse model; (4) the functional peptides selected in (3) were further used to inhibit metastasis of GC (Fig. 1a).

TRIM25 [13] = assay: Western blotting in BGC823 cells; type: cell-based, human; settings: 0, 1, 10, 50 μM for 24 h
Method: as §1

[14] = Toxicity and body weight in treated mice; type: in vivo, BALB/c nude mice; settings: xenograft and metastatic mice models
JWA = assay: Western blotting in GC cells; type: cell-based, human; settings: SGC7901 and BGC823
Method: as §1

MMP2 [15] = assay: Western blotting in GC cells; type: cell-based, human; settings: SGC7901 and BGC823 (Non(p)-JP3: BGC823, 24 h)
Method: as §1

SP1 [16] = assay: Ubiquitination assay; type: cell-based, human
Method: (§6) GC cells were treated with or without JP3, followed by incubation with MG132 (10 μM) for another 6 h. Cells were harvested, prepared for protein samples and divided for Western blotting and co-IP assay, respectively. For co-IP assay, the protein (500 μg) was cultured with anti-SP1 or anti-TRIM25 antibody (dilution: 1:250) at 4 °C for 1 h, and Protein A/G Plus-Agarose overnight. After three cycles of washing in pre-cold IP buffer and centrifugation at 4 °C, 1000×g for 5 min, the immunoprecipitate was collected by centrifugation, eluted and examined by Western blotting.

TRIM25 [17] = assay: Ubiquitination assay; type: cell-based, human; settings: BGC823 cells; His-Ub 48 h, 50 μM 24 h, MG132 10 μM 6 h; IP anti-TRIM25
Method: as §6

CD31 [18] = assay: IHC of lung sections, metastatic GC mouse model; type: in vivo, BALB/c nude mice
Method: as §2
For establishment of metastatic GC mouse model, five-week-old BALB/c nude mice were randomly divided into two groups, 3 mice each. BGC823 cells were suspended in PBS. The mice were injected intravenously with 2 × 10^6 cells in 0.15 mL of PBS through tail vein. […]

BGC823 cells [19] = assay: Metastatic GC mouse model (tail vein injection, bioluminescence imaging, HE staining of lung); type: in vivo, BALB/c nude mice
Method: For establishment of metastatic GC mouse model, five-week-old BALB/c nude mice were randomly divided into two groups, 3 mice each. BGC823 cells were suspended in PBS. The mice were injected intravenously with 2 × 10^6 cells in 0.15 mL of PBS through tail vein. On next day, the mice were treated by intra-peritoneal (ip) injection of Ctrl-H-P and JP3 and followed by luciferase substrate (GM-040611, Genomeditech, China); and photographed using the IVIS Spectrum in vivo imaging system (PerkinElmer, USA) on day 50th to observe the cancer cell metastasis.

BGC823 cells [20] = assay: Xenograft screening of candidate peptides by intra-tumor injection; type: in vivo, BALB/c nude mice; settings: BGC823 subcutaneous xenograft; intra-tumor injection 10 mg/kg/d for 5 days/week x 2 weeks
Method: as §4, §5

CSCC[C@H](NC(=O)[C@H](CCCNC(=N)N)NC(C)=O)C(=O)N[C@@H](CCCCN)C(=O)N[C@@H](CCCCN)C(=O)N[C@@H](CCCNC(=N)N)C(=O)N[C@@H](Cc1ccc(O)cc1)C(=O)N1CCC[C@H]1C(=O)N[C@H](C(=O)N[C@H](C(=O)N[C@@H](Cc1ccccc1)C(=O)N[C@H](C(=O)N[C@@H](CCSC)C(=O)N[C@H](C(=O)N[C@H](C(=O)NCC(=O)NCC(=O)NCC(=O)NCC(=O)N[C@@H](Cc1c[nH]cn1)C(=O)N[C@@H](Cc1c[nH]c2ccccc12)C(=O)NCC(=O)N[C@@H](Cc1ccccc1)C(N)=O)C(C)C)C(C)C)C(C)C)[C@@H](C)OP(=O)(O)O)[C@@H](C)O [JP3] (Ac-RMKKRYPT[pT]FVMVVGGGGHWGF-NH2)
degradation (stability) of SP1 (SP1 [1]): accelerated degradation | degradation (stability) of TRIM25 (TRIM25 [2]): slowed down the degradation | tubular formation of HUVECs, direct treatment (HUVECs [3]): no obvious effects | expression of SP1 in GC tumor tissues (SP1 [4]): down-regulated | expression of TRIM25 in GC tumor tissues (TRIM25 [5]): up-regulated | expression of PCNA in GC tumor tissues (PCNA): down-regulated | expression of CD31 in GC tumor tissues (CD31 [6]): down-regulated | expression of MMP2 in GC tumor tissues (MMP2 [7]): down-regulated | expression of CD31 (microvessel density (MVD)) in GC tumor tissues [8]: suppressed | expression of Ki-67 in GC tumor tissues (Ki-67): suppressed | expression of SP1 in GC cells (SP1 [9]): down-regulated | effect on GC cell proliferation in vitro (colony numbers) (BGC823 cells [10]): no obvious effects | mRNA level of TRIM25 (TRIM25 mRNA): not affected | mRNA level of SP1 (SP1 mRNA): not affected | tubular formation of HUVECs (HUVECs [11]; supernatent of peptide-treated BGC823 cells): dose-dependently inhibited | tubular formation of HUVECs (HUVECs [11]; supernatent of peptide-treated SGC7901 cells): dose-dependently inhibited | tumor inhibitory rate (inhibition of xenograft tumor growth) (BGC823 cells [12]; BGC823 subcutaneous xenograft, intraperitoneal injection 50 mg/kg/d for 12 days): best tumor inhibitory rate among candidates | TRIM25 protein level (TRIM25 [13]): dose-dependent increase | side effects [14]: undetectable side effects | expression of JWA in GC cells (JWA): no obvious effect | expression of MMP2 in GC cells (MMP2 [15]): down-regulated | relative band intensity printed with the blot (IP: SP1, IB: ubiquitin) (SP1 [16]; BGC823, His-ub, JP3 50 μM, with MG132 10 μM 6 h, control = 1.00, MG132 alone 1.50): 2.17 | ubiquitinated SP1 (SP1 [16]; BGC823 and SGC7901 cells, His-ub 48 h, 50 μM for 24 h, IP anti-SP1): increased | ubiquitinated TRIM25 (TRIM25 [17]): decreased | expression of CD31 in GC metastatic tissues (CD31 [18]): significantly suppressed | relative area of metastatic tumor in lung (BGC823 cells [19]; HE staining): significantly decreased | fluorescence intensity of GC cell metastatic foci (BGC823 cells [19]; bioluminescence imaging on day 50, ip injection, compared with Ctrl-P-H group, 3 mice each): obviously reduced

CSCC[C@H](NC(=O)[C@H](CCCNC(=N)N)NC(C)=O)C(=O)N[C@@H](CCCCN)C(=O)N[C@@H](CCCCN)C(=O)N[C@@H](CCCNC(=N)N)C(=O)N[C@@H](Cc1ccc(OP(=O)(O)O)cc1)C(=O)N1CCC[C@H]1C(=O)N[C@H](C(=O)N[C@H](C(=O)N[C@@H](Cc1ccccc1)C(=O)N[C@H](C(=O)N[C@@H](CCSC)C(=O)N[C@H](C(=O)N[C@H](C(N)=O)C(C)C)C(C)C)C(C)C)[C@@H](C)O)[C@@H](C)O [PJP3–1] (Ac-RMKKR[pY]PTTFVMVV-NH2)
tumor inhibitory effect (ratio of mouse xenograft tumor weight/mice weight) (BGC823 cells [20]): better effects than the others

CSCC[C@H](NC(=O)[C@H](CCCNC(=N)N)NC(C)=O)C(=O)N[C@@H](CCCCN)C(=O)N[C@@H](CCCCN)C(=O)N[C@@H](CCCNC(=N)N)C(=O)N[C@@H](Cc1ccc(O)cc1)C(=O)N1CCC[C@H]1C(=O)N[C@H](C(=O)N[C@H](C(=O)N[C@@H](Cc1ccccc1)C(=O)N[C@H](C(=O)N[C@@H](CCSC)C(=O)N[C@H](C(=O)N[C@H](C(N)=O)C(C)C)C(C)C)C(C)C)[C@@H](C)OP(=O)(O)O)[C@@H](C)O [PJP3–3] (Ac-RMKKRYPT[pT]FVMVV-NH2)
tumor inhibitory effect (ratio of mouse xenograft tumor weight/mice weight) (BGC823 cells [20]): better effects than the others

CC[C@H](C)[C@H](NC(C)=O)C(=O)NCC(=O)N[C@@H](CC(C)C)C(=O)N[C@@H](CCCCN)C(=O)N[C@@H](CCCNC(=N)N)C(=O)N[C@H](C(=O)N1CCC[C@H]1C(=O)N[C@@H](CCSC)C(=O)NCC(=O)N[C@H](C(=O)N[C@H](C(N)=O)C(C)C)[C@@H](C)CC)[C@@H](C)OP(=O)(O)O [PJP5] (Ac-IGLKR[pT]PMGIV-NH2)
tumor inhibitory effect (ratio of mouse xenograft tumor weight/mice weight) (BGC823 cells [20]): better effects than the others

HWGF [histidine-tryptophan-glycine-phenylalanine, reference compound]
biological function to inhibit gastric cancer (BGC823 cells [12]; HWGF targeting MMP2 alone): no biological function to inhibit gastric cancer
